Patent US20060252814A1, “Formulation comprising a betablocker and optionally a cholestrol-lowering agent” (AstraZeneca AB, priority 2000, published 2006)

Tests used:
[1] = test system: common carotid artery intima-media thickness in asymptomatic subjects with a carotid plaque; experiment: Carotid ultrasound, change in mean intima-media thickness (IMTmean) in the common carotid artery, 36 months double-blind placebo-controlled trial; type: in vivo, human; conditions: for Common carotid IMTmean, Δ 18 months to baseline (± SD) / Common carotid IMTmean, Δ 36 months to baseline (± SD): mean change; for Common carotid IMTmean, 18 months (± SD): mean value at 18 months follow-up, metoprolol 25 mg o.d. / fluvastatin 40 mg o.d., factorial groups; for Common carotid IMTmean, 36 months (± SD): mean value at 36 months follow-up; for Common carotid IMTmean, Δ between groups at 36 months (95% CI): versus placebo
Description: (§1) The study population consisted of asymptomatic men and women, aged 49 to 70 years, with a plaque in the right carotid artery. A random 50% of those who entered the study were invited to take part in a study on the epidemiology of carotid artery disease. 1548 subjects came to the enrolment examination (visit one) including medical history, physical examination, laboratory measurements and a two-dimensional B-mode ultrasound of the right carotid artery. Subjects with a qualifying lesion in the right carotid artery, and who had no contraindications to the study protocol were invited to take part. In all, 793 subjects were eligible for randomization. All participants provided written informed consent Major exclusion criteria were history of myocardial infarction, angina pectoris or stroke within the preceding three months, history of surgical intervention in the right carotid artery, regular use of beta-blockers or stating, blood pressure above 160 systolic or 95 mm Hg diastolic, hypercholesterolemia (>8.0 mmol/L), hyperglycemia requiring or suspected to require insulin treatment, and conditions which in the opinion of the investigator rendered the subject unsuitable for the trial. […] Death and incidence of major cardiovascular endpoints were monitored. […] Throughout the trial an Acuson 128 […] (Acuson, Mountain View, Calif.) with a 7 MHz transducer was used. The examination procedure and image analysis, as described elsewhere ([…] et al., Clin Physiol, 11:565-577, 1991; […] et al., Stroke, 28:2195-2200, 1997) was performed by specially trained sonographers certified upon completion of an extensive educational program (Berglund, et al., J Intern Med, 236:581-586, 1994). In brief, the right carotid bifurcation was scanned within a pre-defined window comprising three centimeters of the distal common carotid artery, the bifurcation and one centimeter of the internal and external carotid arteries, respectively, for the presence of plaques, defined as focal intima-media thickenings above 1.2 mm. Thickness of the intima-media complex was measured in the far wall according to the leading edge principle, using a specially designed computer-assisted image analyzing system based on automated detection of the echo structures, but with the option to make manual corrections by the operator. Each image was analyzed without knowledge of the subjects' randomization group. From previous experience (Furberg et al., Circulation, 90:1679-1687, 1994) it was anticipated that the annual carotid artery […] progression rate in the placebo group would be approximately 15 μm per year with a standard deviation of 30 μm. […] The primary effect variables, change in […], and […] Bulb, was analyzed in a linear model with change in IMT as dependent variable and with treatment as a factor. Baseline IMTs and time between measurements were included in the model as covariates.

[2] = test system: carotid bulb intima-media thickness in asymptomatic subjects with a carotid plaque; experiment: Carotid ultrasound, change in maximum intima-media thickness (IMTmax) in the carotid bulb (bifurcation), 36 months double-blind placebo-controlled trial; type: in vivo, human; conditions: for Bifurcation carotid IMTmean, Δ 18 months to baseline (± SD) / Bifurcation carotid IMTmean, Δ 36 months to baseline (± SD): mean change; for Bifurcation carotid IMTmean, 18 months (± SD): mean value at 18 months follow-up; for Bifurcation carotid IMTmean, 36 months (± SD): mean value at 36 months follow-up; for Bifurcation carotid IMTmean, Δ between groups at 36 months (95% CI): versus placebo
Description: as §1

[3] = test system: cardiovascular (CVD) events in asymptomatic subjects with a carotid plaque; experiment: Incidence of cardiovascular events during follow-up; type: in vivo, human; conditions: metoprolol versus 13 cases placebo, p=0.055; fluvastatin versus 11 cases placebo, p=0.350
Description: Death and incidence of major cardiovascular endpoints were monitored.

[4] = human, in vivo, 36 months
Description: A large scale clinical trial was designed to investigate the effect of low dose betablocker metoprolol on the progression of carotid IMT versus placebo and clinical outcome measures during 36 months double-blind treatment in asymptomatic subjects with a carotid plaque. The study was a randomized, double blind, parallel group, placebo-controlled, single-center study.
The randomization procedure was performed by using a computer generated randomization scheme. Participants were, according to a factorial design, randomly assigned to one of four drug combination groups: placebo/placebo, metoprolol (25 mg o.d)/placebo, fluvastatin (40 mg o.d.)/placebo or metoprolol (25 mg o.d.)/fluvastatin (40 mg o.d.). The placebo was manufactured to exactly resemble the metoprolol CR/XL tablets (AstraZeneca AB, Mölndal, Sweden), and fluvastatin (Novartis Ltd, Basel, Switzerland) capsules, respectively.
Safety and tolerability pattern during treatment with fluvastatin or metoprolol, was evaluated by comparing adverse events and laboratory findings to placebo. Death and incidence of major cardiovascular endpoints were monitored.
Every participant was seen four times during the first year (after one, three, six and twelve months) and every 6 months thereafter. Weight was obtained every six months and a fasting lipid profile (total cholesterol, LDL-lipoprotein, HDL-lipoprotein and triglycerides) was determined every year. Liver transaminases (AST, ALT) and creatine kinase (CK) were obtained at every visit during the first year and then every year thereafter. AST or ALT values ≧3 times, and CK values ≧10 times the upper limit of normal was considered elevated during the study. […] Subjects with high serum cholesterol or triglycerides were advised to a low-fat diet and if evidence of persistent high cholesterol values such subjects were referred to an independent specialist of lipid disorders without knowledge of the subjects randomization assignment. […]

[5] = Metabolic and physiological effects of treatment in the clinical trial; type: in vivo, human
Description: A large scale clinical trial was designed to investigate the effect of low dose betablocker metoprolol on the progression of carotid IMT versus placebo and clinical outcome measures during 36 months double-blind treatment in asymptomatic subjects with a carotid plaque. The study was a randomized, double blind, parallel group, placebo-controlled, single-center study. The randomization procedure was performed by using a computer generated randomization scheme. Participants were, according to a factorial design, randomly assigned to one of four drug combination groups: placebo/placebo, metoprolol (25 mg o.d)/placebo, fluvastatin (40 mg o.d.)/placebo or metoprolol (25 mg o.d.)/fluvastatin (40 mg o.d.). The placebo was manufactured to exactly resemble the metoprolol CR/XL tablets (AstraZeneca AB, […] , Sweden), and fluvastatin (Novartis Ltd, Basel, Switzerland) capsules, respectively. Every participant was seen four times during the first year (after one, three, six and twelve months) and every 6 months thereafter. Weight was obtained every six months and a fasting lipid profile (total cholesterol, LDL-lipoprotein, HDL-lipoprotein and triglycerides) was determined every year. Liver transaminases (AST, ALT) and creatine kinase (CK) were obtained at every visit during the first year and then every year thereafter. AST or ALT values ≧3 times, and CK values ≧10 times the upper limit of normal was considered elevated during the study. Carotid ultrasound investigation was performed at baseline and after 18 and 36 months treatment.

[6] = in comparison to the placebo group

| Permanent withdrawal from randomized treatment [4] | SMILES | Common carotid IMTmean, Δ 18 months to baseline (± SD) [1] | Common carotid IMTmean, Δ 36 months to baseline (± SD) [1] | Common carotid IMTmean, 18 months (± SD) [1] | Common carotid IMTmean, 36 months (± SD) [1] | Common carotid IMTmean, Δ between groups at 36 months (95% CI) [1] | Bifurcation carotid IMTmean, Δ 18 months to baseline (± SD) [2] | Bifurcation carotid IMTmean, Δ 36 months to baseline (± SD) [2] | Bifurcation carotid IMTmean, 18 months (± SD) [2] | Bifurcation carotid IMTmean, 36 months (± SD) [2] | Bifurcation carotid IMTmean, Δ between groups at 36 months (95% CI) [2] | CVD events during follow-up [3] | also measured |
| --- | --- | --- | --- | --- | --- | --- | --- | --- | --- | --- | --- | --- | --- |
| 21% | CC(C)n1c(/C=C/C(O)CC(O)CC(=O)O)c(-c2ccc(F)cc2)c2ccccc21 (centres unmarked) [Fluvastatin, fluvastatin] | −5 ± 11 μm | 11 ± 11 μm | 890 ± 196 μm | 905 ± 205 μm | −25 (−44 to −7) μm | 63 ± 334 μm | 170 ± 374 μm | 1965 ± 554 μm | 2095 ± 652 μm | −41 (−102 to 19) μm | 7 cases | IMTmean CCA progression, mean difference of yearly change between groups ([1]; compared with placebo after 36 months of treatment, 95% CI −15 to −3, p=0.002): −9 μm; frequency of transiently high liver enzymes ([4]; female): 10.2% |
| 15% | COCCc1ccc(OCC(O)CNC(C)C)cc1 (centres unmarked) [Metoprolol, metoprolol] | −5 ± 12 μm | 22 ± 13 μm | 908 ± 205 μm | 934 ± 220 μm | −2 (−20 to 17) μm | 23 ± 325 μm | 154 ± 411 μm | 1937 ± 572 μm | 2003 ± 624 μm | −73 (−133 to −13) μm | 5 cases | reduced the rate of progression of IMTmean CCA compared with placebo ([1]; after 36 months of treatment, result in words): not; carotid IMTmaxBulb progression, mean difference of yearly change between groups ([2]; after 18 months of treatment, 95% CI −94 to −23, p=0.004): −58 μm; carotid IMTmaxBulb progression, mean difference of yearly change between groups ([2]; after 36 months, subgroup with serum cholesterol at baseline, 95% CI −87 to −19, p=0.001): −53 μm; carotid IMTmaxBulb progression, mean difference of yearly change between groups ([2]; compared with placebo after 36 months of treatment, 95% CI −44 to −3, p=0.014): −23 μm; effect on other metabolic variables ([5]; compared to the placebo group): no effect; change of blood pressure [5, 6]: not significantly changed; change of lumen diameter [5, 6]: not significantly changed; decrease of mean heart rate in comparison to the placebo group ([5]; metoprolol 25 mg o.d.): 2.5 beats per min; increase of serum triglycerides compared to the placebo group ([5]; metoprolol 25 mg o.d.): 0.14 mmol/L |
